Measured values published in patent EP4257135A1, “BENZIMIDAZOLE DERIVATIVES FOR PULMONARY ARTERIAL HYPERTENSION” (Justus-Liebig-Universität Gießen, priority 2022, dated 2023).

What was measured:
MCT-PAH = test: Monocrotaline-induced PAH rat model, right heart catheterisation and histology; type: in vivo, Ratten; details: MCT-PAH rats, three times weekly for two weeks, intratracheal nebulisation 275 nmol/kg
Source text: (§1) Um das therapeutische Potenzial der EP300/CREBBP-Hemmung in vivo weiter zu erforschen, haben die Erfinder Versuchstiere in drei verschiedenen Nagetiermodellen mit etablierter PAH mit der Substanz SGC-CBP30 behandelt, wobei SGC-CBP30 durch intra-tracheale Vernebelung über zwei Wochen lang dreimal wöchentlich verabreicht wurde. Es wurden folgende drei verschiedenen Nagetiermodelle für eine PAH (FHR-PAH, MCT-PAH und SuHx-PAH) getestet: • Fawn-hooded hypertensive Ratten (FHR): Das ist ein genetischer Rattenstamm, bei dem PAH im Alter spontan auftritt und der ähnliche PAH-Anomalien aufweist, wie sie bei IPAH bei Menschen nach 40 Wochen auftreten. • Durch Monocrotalin (MCT) induziertes PAH-Rattenmodell. • Ein SUGEN5416/chronische Hypoxie (SuHx)-Rattenmodell für PAH, bei dem die Ratten eine einmalige Injektion von SUGEN5416 erhielten und anschließend einer chronischen Hypoxie (10% O2) ausgesetzt wurden (SuHx-PAH).
(§2) Für die MCT-PAH wurden männlichen und weiblichen SD-Ratten (Sprague-Dawley-Ratten) subkutan 60 mg/kg MCT (Sigma, Katalog: C2401) injiziert, um PAH zu induzieren. Bei der SuHx-PAH erhielten SD-Ratten eine einmalige subkutane Injektion von SUGEN5416 (20 mg/kg) und wurden drei Wochen lang einer normobaren Hypoxie ausgesetzt, bevor sie für zwei Wochen an die Raumluft zurückkehrten. Zwei Wochen nach der MCT-Injektion bzw. drei Wochen nach der SUGEN5416-Injektion (sobald PAH festgestellt wurde) wurden die Ratten nach dem Zufallsprinzip in vier Gruppen eingeteilt und erhielten zwei Wochen lang dreimal wöchentlich entweder Vehikel (Verabreichung von 1 % Methylcellulose in destilliertem Wasser oder intratracheale Vernebelung von 4 % DMSO in PBS als Negativkontrolle), SGC-CBP30 (Verabreichung von 10 mg/kg in 1 % Methylcellulose + destilliertem Wasser) oder SGC-CBP30 (intratracheale Vernebelung von 275 nmol/kg in 4 % DMSO + PBS). Einjährige männliche und weibliche FHR-Ratten mit etablierter PAH wurden in dieselben vier Gruppen wie beim MCT-Modell eingeteilt und den selben Behandlungsmethoden unterzogen. Für die Vernebelung wurden die Ratten mit 3%igem Isofluran betäubt. Ein 16-Gauge-Katheter wurde in die Luftröhre eingeführt. Ein Vernebler (Aerogen) wurde an den Katheter angeschlossen, und für jede Behandlung wurde ein Volumen von 50 µl SGC-CBP30 oder dessen Vehikel (als Negativkontrolle) verabreicht. Nach zweiwöchiger Behandlung wurde eine Rechtsherzkatheteruntersuchung bei geschlossenem Thorax durchgeführt, um folgende hämodynamischen Daten zu erfassen: Systolischer Rechtsventrikulärer Druck (RVSP), mittlerer PA-Druck (mPAP), Herzzeitvolumen (CO) und Schlagvolumen (SV). Der Gesamtwiderstand der Lunge (TPR) wurde durch Division von mPAP durch CO ermittelt. Nach der hämodynamischen Messung wurden den Ratten Gewebeproben entnommen. Die Experimente wurden gemäß den Richtlinien des Canadian Council on Animal Care durchgeführt. Alle Protokolle wurden von der institutionellen Ethikkommission für Tiere (Tierschutzausschuss der Universität Laval) geprüft und genehmigt (Protokollnummer 2019-018-2). Alle Experimente folgten den Richtlinien für die präklinische Forschung bei PAH.
(§3) Der schwarze Balken zeigt 50 µm an. Die Daten sind als Mittelwert ± SD angegeben und die statistische Analyse wurde mit einem ungepaarten Student's t-Test durchgeführt. FHR, MCT und SU5416/chronische Hypoxie-Ratten: *P<0,05, **P<0,01 und ***P<0,001 gegenüber den mit Vehikel behandelten Gruppen. MCT-Rattenmodell: §P<0,05, §§P<0,01 und §§§P<0,001 gegenüber der unbehandelten Kontrollgruppe. • A: Schematische Darstellung des Versuchsaufbaus für die Behandlung von Fawn-hooded hypertensive Ratten (FHR) mit dem EP300/CREBBP-Inhibitor SGC-CBP30, der selektiv auf die Acetyltransferase EP300/CREBBP wirkt. […]

SuHx-PAH = test: SUGEN5416/chronic hypoxia PAH rat model, right heart catheterisation and histology; type: in vivo, Ratten; details: SuHx-PAH rats, three times weekly for two weeks, intratracheal nebulisation 275 nmol/kg
Source text: as §1, §2, §3

[1] = start three weeks after SUGEN5416

COc1ccc(CCc2nc3cc(-c4c(C)noc4C)ccc3n2C[C@H](C)N2CCOCC2)cc1Cl [SGC-CBP30, 2-[2-(3-Chloro-4-methoxyphenyl)ethyl]-5-(3,5-dimethyl-1,2-oxazol-4-yl)-1-[(S)-2-(morpholin-4-yl)propyl]-1H-benzimidazole]
RVSP (MCT-PAH; start two weeks after MCT): signifikanten Senkung | mPAP (MCT-PAH; start two weeks after MCT): signifikanten Senkung | CO (MCT-PAH): verbesserten sich nach der Behandlung mit der Substanz SGC-CBP30 bei FHR-PAH und MCT-PAH signifikant | SV (MCT-PAH): verbesserten sich nach der Behandlung mit der Substanz SGC-CBP30 bei FHR-PAH und MCT-PAH signifikant | mediale Wanddicke der distalen PAs (MCT-PAH): signifikant verringert | TPR (MCT-PAH; mPAP divided by CO): signifikanten Senkung | RVSP (SuHx-PAH; [1]): signifikanten Senkung | mPAP (SuHx-PAH; [1]): signifikanten Senkung | CO (SuHx-PAH): verbesserte CO und SV auch bei SUGEN5416/chronischer Hypoxie-PAH signifikant | SV (SuHx-PAH): verbesserte CO und SV auch bei SUGEN5416/chronischer Hypoxie-PAH signifikant | mediale Wanddicke der distalen PAs (SuHx-PAH): signifikant verringert | TPR (SuHx-PAH; mPAP divided by CO): signifikanten Senkung
